Data published in ChEMBL document CHEMBL1145268, “Synthesis and evaluation of 6-hydroxy-7-methoxy-4-chromanone- and chroman-2-carboxamides as antioxidants” (Bioorg Med Chem Lett, 2005).

Experiments:
[1] = species: Rattus norvegicus; test: Inhibition concentration against lipid peroxidation initiated by [Fe2+] and L-ascorbic acid in rat brain homogenates; format: functional
[2] = species: Rattus norvegicus; test: Inhibition concentration against DPPH radical scavenging activity […] was determined; format: functional

| SMILES | IC50 [1] | IC50 [2] |
| --- | --- | --- |
| CCCCNC(=O)C1CCc2cc(O)c(OC)cc2O1 (stereo unspecified) | 51.3 µM | 24.8 µM |
| CCCCNC(=O)C1CC(=O)c2cc(O)c(OC)cc2O1 (stereo unspecified) | 177 µM | 66.4 µM |
| CCCNC(=O)C1CC(=O)c2cc(O)c(OC)cc2O1 (stereo unspecified) | > 300 µM | 80.8 µM |
| COc1cc2c(cc1O)CCC(C(=O)Nc1ccc([N+](=O)[O-])cc1)O2 (stereo unspecified) | 3.8 µM | 40.1 µM |
| COc1cc2c(cc1O)C(=O)CC(C(=O)O)O2 (stereo unspecified) | > 300 µM | 104 µM |
| COc1cc2c(cc1O)CCC(C(=O)O)O2 (stereo unspecified) | > 300 µM | 16.8 µM |
| COc1cc2c(cc1O)C(=O)CC(C(N)=O)O2 (stereo unspecified) | > 300 µM | 214 µM |
| COc1cc2c(cc1O)CCC(C(=O)NCc1ccccc1)O2 (stereo unspecified) | 16.6 µM | 21.7 µM |
| COc1cc2c(cc1O)C(=O)CC(C(=O)NCc1ccccc1)O2 (stereo unspecified) | > 300 µM | 118 µM |
| COc1cc2c(cc1O)CCC(C(=O)Nc1ccccc1)O2 (stereo unspecified) | 6.9 µM | 24.9 µM |
| COc1cc2c(cc1O)C(=O)CC(C(=O)Nc1ccccc1)O2 (stereo unspecified) | 293 µM | 119 µM |
| CCCNC(=O)C1CCc2cc(O)c(OC)cc2O1 (stereo unspecified) | 119 µM | 42.9 µM |
| Cc1c(C)c2c(c(C)c1O)CCC(C)(C(=O)O)O2 (stereo unspecified) [TROLOX] | 166 µM | 18.2 µM |
